Values quoted from earlier work in patent US20100104634A1, “PHARMACEUTICAL COMPOSITIONS OF ENTACAPONE” (priority 2006, published 2010).

Conditions: low solubility, low dissolution rate, low bioavailability

- Biopharmaceutics Classification system (BCS) class: class IV
SMILES: CCN(CC)C(=O)/C(C#N)=C/c1cc(O)c(O)c([N+](=O)[O-])c1 [Entacapone, (E)-2-cyano-3-(3,4-dihydroxy-5-nitrophenyl)-N,N-diethyl-2-propenamide]
